Data set [1] addresses T1, hFXR-LBD (FXR-GAL4 chimeric receptor) (Homo sapiens, UniProt Q96RI1).
T1 construct: host or cells: HEK293T
T1 sequence (Q96RI1 262-486 limits assumed): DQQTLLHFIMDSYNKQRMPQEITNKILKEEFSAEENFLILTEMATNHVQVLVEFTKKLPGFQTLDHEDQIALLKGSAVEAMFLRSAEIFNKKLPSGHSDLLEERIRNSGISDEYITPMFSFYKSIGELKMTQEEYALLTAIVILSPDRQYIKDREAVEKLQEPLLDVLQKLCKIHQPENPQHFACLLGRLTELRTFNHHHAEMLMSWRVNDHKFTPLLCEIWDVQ
Nature of the data set: FXR Transactivation Assay (GAL4 luciferase reporter in HEK293T cells). The format is cell-based. As for the experimental part:
FXR Transactivation Assay
The present compounds were tested to assess their ability to stimulate FXR transactivation activity. The hFXR-LBD, coding sequence was inserted into the pBIND expression vector (Promega, E1581) to express FXR-GAL4 binding domain chimeric receptors. This expression vector and reporter vector (pGL4.35 which carry a stably integrated GAL4 promoter driven luciferase reporter gene) were co-transfected into HEK293T host cells. Upon agonist binding to the corresponding FXR-GAL4 chimeric receptor, the chimeric receptor binds to the GAL4 binding sites and stimulates the reporter gene.
All the working stock were shake for 5 min on plate shaker (QILINBEIER). Second, all cells were cultured as ATCC recommended. HEK293T cells were assayed in exponential growth phase. Removed culture medium from the flask and rinsed cells with PBS. Added TrypLE solution to the flask and make cells detach. Next, cells were washed once with complete growth medium. Then, cells were pelleted and washed twice with PBS to remove phenol red and resuspend them in medium to a proper concentration. Only cells with viability greater than 90% were used for assays. Seeded 6×10^6 HEK293T cells into a 100 mm dish and incubated at 37° C. under 5% CO2 atmosphere for 16 h. Third, Trans-IT reagent and Opti-MEM mix by inversion and incubate 5 min at room temperature. The cell transfection was performed by mixing DNA and the reagent mixture, as well as 6 μg GAL4-FXR plasmid or 2 μg pGL4.35 luciferase plasmid, respectively. The reagent mixture was added to a 100 mm dish and incubated for 4-7 hrs at 37° C. under 5% CO2 atmosphere. Fourth, transferred 75 nl compound dilutions into 384-well assay plates (PerkinElmer) and seeded HEK293T cells at 17,000 cells/well using phenol red-free DMEM containing 5% charcoal/dextran-treated FBS. Then, cells were incubated for 16-20 h at 37° C. under 5% CO2 atmosphere. Finally, added 25 μl Steady-Glo™ Luciferase Assay Reagent into each well of 384-well assay plate, and then shake plate for 5 min protected from light on a plate shaker. Then, the luminescence value was read on Evision 2104 plate reader (PerkinElmer).
The activity ratio was calculated as follow: […]
RLU: Resulting Luminescence
RLUpositive: The average RLU for the positive controls across the plate.
RLUvehicle: The average RLU for negative controls across the plate.
EC50 was calculated by fitting % Activity values and log of compound concentrations to nonlinear regression (dose response-variable slope) with GraphPad 5.0.
X: log of compound concentration.
For orientation: In a reporter assay the amount or activity of a reporter protein is the signal.

For a further data set, the target named is T2, FXR LBD, GST (Homo sapiens, UniProt Q96RI1).
T2 construct: FXR LBD, GST; purchased Invitrogen PV4834
T2 sequence (Q96RI1 262-486 limits assumed): T1 sequence (Q96RI1 262-486 limits assumed)
The data set is described as follows: FXR Binding Assay (TR-FRET, Fluorescein-SRC2-2 coactivator peptide). Conditions: for Emax / Pct Effect (Emax %): % Activity relative to positive control; for Emax: read-out: Pct Effect (Emax %); for EC50: TR-FRET FXR LBD coactivator recruitment. A general note: TR-FRET usually uses a lanthanide donor and a delayed reading to cut background.

For data set [2] the following is noted: cited from earlier work.

The term EC50 denotes the midpoint of the concentration-response curve. As usually defined, the Emax is the greatest response seen or fitted, relative to the assay's reference.

In turn, `C[C@@H]1CN(c2ccc3c(C(=O)O)cn(C)c3c2)CCN1CCc1c(-c2c(Cl)cccc2Cl)noc1C1CC1` [Example I35, (R)-6-(4-(2-(5-cyclopropyl-3-(2,6-dichlorophenyl)isoxazol-4-yl)ethyl)-3-methylpiperazin-1-yl)-1-methyl-1H-indole-3-carboxylic Acid] registered an EC50 in data set [1] of 494 nM. Moreover, on FXR LBD, GST, the Emax was 156% and a half-maximal response (EC50) required 97 nM.
For `Cn1cc(C(=O)O)c2ccc(C3CCN(CCc4c(-c5c(Cl)cccc5Cl)noc4C4CC4)CC3)cc21` [Example I36, 6-(1-(2-(5-cyclopropyl-3-(2,6-dichlorophenyl)isoxazol-4-yl)ethyl)piperidin-4-yl)-1-methyl-1H-indole-3-carboxylic Acid] the same measures were 577 nM, 161% and 94 nM.
For `C[C@H]1CN(c2ccc3c(C(=O)O)cn(C)c3c2)CCN1CCc1c(-c2c(Cl)cccc2Cl)noc1C1CC1` [Example I37, (S)-6-(4-(2-(5-cyclopropyl-3-(2,6-dichlorophenyl)isoxazol-4-yl)ethyl)-3-methylpiperazin-1-yl)-1-methyl-1H-indole-3-carboxylic Acid] the same measures were 574 nM, 232% and 101 nM.
As to `Cn1cc(C(=O)O)c2ccc(N3CCN(CCc4c(-c5c(Cl)cccc5Cl)noc4C4CC4)C(C)(C)C3)cc21` [Example I38, 6-(4-(2-(5-cyclopropyl-3-(2,6-dichlorophenyl)isoxazol-4-yl)ethyl)-3,3-dimethylpiperazin-1-yl)-1-methyl-1H-indole-3-carboxylic Acid], the EC50 in data set [1] is 377 nM. Further, on FXR LBD, GST, the Emax came to 133% and the EC50 was 48 nM.
For `C[C@@H]1CN(CCc2c(-c3c(Cl)cccc3Cl)noc2C2CC2)CCN1c1ccc2c(C(=O)O)cn(C)c2c1` [Example I40, (R)-6-(4-(2-(5-cyclopropyl-3-(2,6-dichlorophenyl)isoxazol-4-yl)ethyl)-2-methylpiperazin-1-yl)-1-methyl-1H-indole-3-carboxylic Acid] the same measures were 343 nM, 131% and 77 nM.
On to `Cn1cc(C(=O)O)c2cc(F)c(N3CCN(CCc4c(-c5c(Cl)cccc5Cl)noc4C4CC4)CC3)cc21` [Example I42, 6-(4-(2-(5-cyclopropyl-3-(2,6-dichlorophenyl)isoxazol-4-yl)ethyl)piperazin-1-yl)-5-fluoro-1-methyl-1H-indole-3-carboxylic Acid], for which the EC50 in data set [1] was determined as 551 nM; at FXR LBD, GST, 99 nM. Besides, the “Pct Effect (Emax %)” value at FXR LBD, GST was found to be 196.20%.
`Cn1cc(C(=O)O)c2cc(F)c(N3CCN(CCc4c(-c5c(Cl)cccc5Cl)noc4C4CC4)CC3)cc21` [Example I45, 6-(4-(2-(5-cyclopropyl-3-(2,6-dichlorophenyl)isoxazol-4-yl)ethyl)piperazin-1-yl)-5-fluoro-1-methyl-1H-indole-3-carboxylic Acid]: the EC50 in data set [1] is 224 nM; at FXR LBD, GST, 72 nM. Moreover, at FXR LBD, GST, the “Pct Effect (Emax %)” value is listed as 161.70%.
Turning to `CN(Cc1c(-c2c(Cl)cccc2Cl)noc1C1CC1)C1CCN(c2ccc3c(C(=O)O)cn(C)c3c2)CC1` [Example I58, 6-(4-(((5-cyclopropyl-3-(2,6-dichlorophenyl)isoxazol-4-yl)methyl)(methyl)amino)piperidin-1-yl)-1-methyl-1H-indole-3-carboxylic Acid], a half-maximal response in data set [1] (EC50) required 2270 nM. Moreover, on FXR LBD, GST, the Emax was 83.4% and the midpoint of the response, the EC50, lay at 497 nM.
Consider `O=C(O)c1cc(F)c2nc(N3[C@@H]4CC[C@H]3C[C@@H](OCc3c(-c5ccccc5OC(F)(F)F)noc3C3CC3)C4)sc2c1` [LJN452], for which the drug-related pruritus result in data set [2] (after multiple doses) is listed as “No drug-related pruritus was observed”. The ALT/AST result in data set [2] (individual subjects) was “ALT/AST increased in individual subjects”. Further, in data set [2] (single dose of up to 3 mg), the drug-related adverse reactions result is listed as “No drug-related adverse reactions were observed”; the safety and tolerability entry is “performed well in safety and tolerability”.

The record behind these values is US20220227745A1, “Compounds For Modulating FXR” (NANJING RUIJIE PHARMA TECH CO., LTD., priority 2019, published 2022).
